Results: ChEMBL document CHEMBL1201862, “PubChem BioAssay data set” (2004)
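In this assay, cells in 96-well plates receive the compound at five concentrations for 48 hours. Endpoints are linearly interpolated between the surrounding concentrations. GI50 marks 50% less growth.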 Activity calls are given as the source filed them. No stated cut-off is given here; in the data, active = GI50 up to about 1.1 µM and inactive = higher.

Columns and labels:
Test in all cases: NCI-60 cell line screen, 48 h
LXFL 529 = system: LXFL 529
LOX IMVI = system: LOX IMVI
RPMI-8226 = system: RPMI-8226
NCI-H460 = system: NCI-H460
Malme-3M = system: Malme-3M
SK-MEL-2 = system: SK-MEL-2
HOP-92 = system: HOP-92
CCRF-CEM = system: CCRF-CEM
RXF 393 = system: RXF 393
UACC-257 = system: UACC-257
HCT-116 = system: HCT-116
M19-MEL = system: M19-MEL
KM12 = system: KM12
SF-268 = system: SF-268
TK-10 = system: TK-10
DMS-273 = system: DMS-273
OVCAR-3 = system: OVCAR-3
NCI-H522 = system: NCI-H522
SK-MEL-28 = system: SK-MEL-28
U-251 = system: U-251
MOLT-4 = system: MOLT-4
SN12C = system: SN12C
UO-31 = system: UO-31
OVCAR-8 = system: OVCAR-8
SK-OV-3 = system: SK-OV-3
RXF 631 = system: RXF 631
M14 = system: M14
HCC 2998 = system: HCC 2998
IGROV-1 = system: IGROV-1
CAKI-1 = system: CAKI-1
SW-620 = system: SW-620
SNB-75 = system: SNB-75
ACHN = system: ACHN
OVCAR-5 = system: OVCAR-5
EKVX = system: EKVX
DMS-114 = system: DMS-114
A549 = system: A549
UACC-62 = system: UACC-62
OVCAR-4 = system: OVCAR-4
KM-20L2 = system: KM-20L2
SNB-78 = system: SNB-78
HOP-18 = system: HOP-18
HL-60 = system: HL-60
COLO 205 = system: COLO 205
SF-295 = system: SF-295
SK-MEL-5 = system: SK-MEL-5
SNB-19 = system: SNB-19
K562 = system: K562
786-0 = system: 786-0
HCT-15 = system: HCT-15
HT-29 = system: HT-29
DLD-1 = system: DLD-1
NCI-H23 = system: NCI-H23
NCI-H226 = system: NCI-H226
SF-539 = system: SF-539
A498 = system: A498
SR = system: SR
HOP-62 = system: HOP-62

With `CCC(/C(=N\Nc1c(Cl)cc(Cl)cc1Cl)c1ccccc1)n1ccnc1C` (stereo not given) the GI50 (LXFL 529) was 11.7 µM (inactive), the GI50 (LOX IMVI) was 12.2 µM (inactive) and the GI50 (RPMI-8226) was 3.99 µM (inactive). For the same molecule, the GI50 (NCI-H460) was 11 µM (inactive), the GI50 (Malme-3M) was 11.7 µM (inactive) and the GI50 (SK-MEL-2) was 13.3 µM (inactive). For the same molecule, the GI50 (HOP-92) was 4.06 µM (inactive), the GI50 (CCRF-CEM) was 13 µM (inactive) and the GI50 (RXF 393) was > 10 µM (inactive). The GI50 (UACC-257) was 14.5 µM (inactive), the GI50 (HCT-116) was 7.05 µM (inactive) and the GI50 (M19-MEL) was 14.8 µM (inactive). The GI50 (KM12) was 10.4 µM (inactive), the GI50 (SF-268) was 17.2 µM (inactive) and the GI50 (TK-10) was 14.3 µM (inactive). The GI50 (DMS-273) was 4.6 µM (inactive), the GI50 (OVCAR-3) was 5.82 µM (inactive) and the GI50 (NCI-H522) was 4.55 µM (inactive). For the same molecule, the GI50 (SK-MEL-28) was 14.7 µM (inactive), the GI50 (U-251) was 12.8 µM (inactive) and the GI50 (MOLT-4) was 5.41 µM (inactive). The GI50 (SN12C) was 11.9 µM (inactive), the GI50 (UO-31) was 5.97 µM (inactive) and the GI50 (OVCAR-8) was 12.9 µM (inactive). The GI50 (SK-OV-3) was 18.4 µM (inactive), the GI50 (RXF 631) was 9.64 µM (inactive) and the GI50 (M14) was 13.3 µM (inactive). For the same molecule, the GI50 (HCC 2998) was 3.66 µM (inactive), the GI50 (IGROV-1) was 11 µM (inactive) and the GI50 (CAKI-1) was 11 µM (inactive). The GI50 (SW-620) was 15.2 µM (inactive), the GI50 (SNB-75) was 14.6 µM (inactive) and the GI50 (ACHN) was 5.52 µM (inactive). For the same molecule, the GI50 (OVCAR-5) was 9.04 µM (inactive), the GI50 (EKVX) was 17.3 µM (inactive) and the GI50 (DMS-114) was 6.58 µM (inactive). For the same molecule, the GI50 (A549) was 13.8 µM (inactive), the GI50 (UACC-62) was 17.5 µM (inactive) and the GI50 (OVCAR-4) was 10.5 µM (inactive). For the same molecule, the GI50 (KM-20L2) was 4.61 µM (inactive), the GI50 (SNB-78) was 19.1 µM (inactive) and the GI50 (HOP-18) was 14.9 µM (inactive). The GI50 (HL-60) was 3.82 µM (inactive), the GI50 (COLO 205) was 11.6 µM (inactive) and the GI50 (SF-295) was 11.5 µM (inactive). The GI50 (SK-MEL-5) was 7.91 µM (inactive), the GI50 (SNB-19) was 14.4 µM (inactive) and the GI50 (K562) was 5.07 µM (inactive). The GI50 (786-0) was 11.7 µM (inactive), the GI50 (HCT-15) was 10.5 µM and the GI50 (HT-29) was 8.05 µM (inactive). The GI50 (DLD-1) was 4.22 µM (inactive), the GI50 (NCI-H23) was 10.7 µM (inactive) and the GI50 (NCI-H226) was 15.2 µM (inactive). The GI50 (SF-539) was 16.2 µM (inactive) and the GI50 (A498) was 14.2 µM (inactive).
For `Nc1nc(Cl)cc(NCCCCCNc2cc(Cl)nc(N)n2)n1`, the GI50 (LXFL 529) was 26.9 µM (inactive), the GI50 (LOX IMVI) was 25.1 µM (inactive) and the GI50 (RPMI-8226) was 33.5 µM (inactive). The GI50 (NCI-H460) was > 100 µM (inactive), the GI50 (SR) was 38.7 µM (inactive) and the GI50 (SK-MEL-2) was > 100 µM (inactive). The GI50 (HOP-92) was 28.2 µM (inactive), the GI50 (CCRF-CEM) was 54.1 µM (inactive) and the GI50 (RXF 393) was 58.3 µM (inactive). The GI50 (UACC-257) was 46.8 µM (inactive), the GI50 (HCT-116) was 30.3 µM (inactive) and the GI50 (KM12) was > 100 µM (inactive). The GI50 (SF-268) was 29.1 µM (inactive), the GI50 (TK-10) was > 100 µM (inactive) and the GI50 (DMS-273) was > 100 µM (inactive). For the same molecule, the GI50 (OVCAR-3) was 42 µM (inactive), the GI50 (NCI-H522) was 20 µM (inactive) and the GI50 (SK-MEL-28) was 75 µM (inactive). The GI50 (U-251) was > 100 µM (inactive), the GI50 (MOLT-4) was 7.48 µM (inactive) and the GI50 (SN12C) was > 100 µM (inactive). The GI50 (UO-31) was > 100 µM (inactive), the GI50 (OVCAR-8) was 71.8 µM (inactive) and the GI50 (SK-OV-3) was > 100 µM (inactive). The GI50 (RXF 631) was > 100 µM (inactive), the GI50 (HOP-62) was > 100 µM (inactive) and the GI50 (M14) was 88.3 µM (inactive). For the same molecule, the GI50 (HCC 2998) was > 100 µM (inactive), the GI50 (IGROV-1) was > 100 µM (inactive) and the GI50 (CAKI-1) was 17 µM (inactive). For the same molecule, the GI50 (SW-620) was > 100 µM (inactive), the GI50 (SNB-75) was 72.3 µM (inactive) and the GI50 (ACHN) was 15.2 µM (inactive). For the same molecule, the GI50 (OVCAR-5) was 37.4 µM (inactive), the GI50 (EKVX) was 86.5 µM (inactive) and the GI50 (A549) was 42 µM (inactive). The GI50 (UACC-62) was 24 µM (inactive), the GI50 (OVCAR-4) was 34.8 µM (inactive) and the GI50 (KM-20L2) was > 100 µM (inactive). For the same molecule, the GI50 (SNB-78) was 31.3 µM (inactive), the GI50 (HOP-18) was > 100 µM (inactive) and the GI50 (HL-60) was 27.3 µM (inactive). For the same molecule, the GI50 (COLO 205) was > 100 µM (inactive), the GI50 (SF-295) was 29.2 µM (inactive) and the GI50 (SK-MEL-5) was 23.5 µM (inactive). For the same molecule, the GI50 (SNB-19) was > 100 µM (inactive), the GI50 (K562) was 34.6 µM (inactive) and the GI50 (786-0) was > 100 µM (inactive). The GI50 (HCT-15) was 73.6 µM, the GI50 (HT-29) was > 100 µM (inactive) and the GI50 (DLD-1) was > 100 µM (inactive). The GI50 (NCI-H23) was 55.5 µM (inactive), the GI50 (NCI-H226) was 41.4 µM (inactive) and the GI50 (SF-539) was > 100 µM (inactive).
For `CN(C)C(=O)CC(C(=O)O)c1c[nH]c2ccccc12` (stereo not given), the GI50 (LXFL 529) was > 100 µM (inactive), the GI50 (LOX IMVI) was > 100 µM (inactive) and the GI50 (RPMI-8226) was > 100 µM (inactive). For the same molecule, the GI50 (NCI-H460) was > 100 µM (inactive), the GI50 (SR) was > 100 µM (inactive) and the GI50 (Malme-3M) was > 100 µM (inactive). For the same molecule, the GI50 (SK-MEL-2) was > 100 µM (inactive), the GI50 (CCRF-CEM) was > 100 µM (inactive) and the GI50 (RXF 393) was 10.2 µM (inactive). For the same molecule, the GI50 (UACC-257) was > 100 µM (inactive), the GI50 (HCT-116) was > 100 µM (inactive) and the GI50 (M19-MEL) was > 100 µM (inactive). For the same molecule, the GI50 (KM12) was > 100 µM (inactive), the GI50 (TK-10) was > 100 µM (inactive) and the GI50 (DMS-273) was > 100 µM (inactive). For the same molecule, the GI50 (OVCAR-3) was > 100 µM (inactive), the GI50 (NCI-H522) was > 100 µM (inactive) and the GI50 (U-251) was > 100 µM (inactive). The GI50 (MOLT-4) was > 100 µM (inactive), the GI50 (SN12C) was > 100 µM (inactive) and the GI50 (UO-31) was 0.0895 µM (active). For the same molecule, the GI50 (OVCAR-8) was > 100 µM (inactive), the GI50 (RXF 631) was > 100 µM (inactive) and the GI50 (HOP-62) was > 100 µM (inactive). For the same molecule, the GI50 (M14) was > 100 µM (inactive), the GI50 (HCC 2998) was > 100 µM (inactive) and the GI50 (IGROV-1) was > 100 µM (inactive). The GI50 (CAKI-1) was > 100 µM (inactive), the GI50 (SW-620) was > 100 µM (inactive) and the GI50 (SNB-75) was > 100 µM (inactive). The GI50 (ACHN) was > 100 µM (inactive), the GI50 (EKVX) was > 100 µM (inactive) and the GI50 (DMS-114) was > 100 µM (inactive). The GI50 (A549) was > 100 µM (inactive), the GI50 (UACC-62) was > 100 µM (inactive) and the GI50 (OVCAR-4) was > 100 µM (inactive). For the same molecule, the GI50 (KM-20L2) was > 100 µM (inactive), the GI50 (HL-60) was > 100 µM (inactive) and the GI50 (COLO 205) was > 100 µM (inactive). For the same molecule, the GI50 (SF-295) was > 100 µM (inactive), the GI50 (SK-MEL-5) was > 100 µM (inactive) and the GI50 (SNB-19) was > 100 µM (inactive). The GI50 (K562) was > 100 µM (inactive), the GI50 (786-0) was > 100 µM (inactive) and the GI50 (HCT-15) was greater than 100 µM. The GI50 (HT-29) was > 100 µM (inactive), the GI50 (DLD-1) was > 100 µM (inactive) and the GI50 (NCI-H23) was > 100 µM (inactive). The GI50 (SF-539) was > 100 µM (inactive) and the GI50 (A498) was > 100 µM (inactive).
